Assay in all cases: growth of human tumour cells (NCI), 48 h
For experiment [1], the system named is A549 NSCLC.
The subject of experiment [2] is CAKI-1 renal.
Experiment [3] concerns CCRF-CEM leukemia.
The test system of experiment [4] is HT29 colon.
Experiment [5] has as its system MCF7 breast.
The test system of experiment [6] is MDA-MB-231 breast.
Experiment [7] concerns NCI-H23 lung.
Experiment [8] concerns SF-268 CNS.
Experiment [9] relates to SF-539 CNS.
Experiment [10] concerns TK-10 renal.

Where “and” joins values, the source holds several entries; their conditions need not be identical. Equal values may be shown once.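 Where inhibition never reached the appropriate level, the endpoint shown equals the highest concentration tested. Otherwise, values were interpolated linearly from a five-concentration, 48-hour dose response in 96-well plates. At the GI50, growth is halved. At the TGI there is no net growth.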

Regarding `COC(=O)c1ccc2nc(-c3cc4ccccc4n3C)n(CCCCOc3cc4c(cc3OC)C(=O)N3CCC[C@H]3C=N4)c2c1`, the GI50 was 1.5 µM in experiment [1]; 0.953 µM in experiment [2]; 2.53 µM in experiment [3]; 0.929 µM in experiment [4]; 0.292 µM in experiment [5]; 0.366 µM in experiment [6]. Further, the GI50 in experiment [7] was 0.485 µM; in experiment [8], 0.29 µM; in experiment [9], 0.881 µM; in experiment [10], 0.43 µM. In addition, the TGI in experiment [1] was 10.3 µM; in [2] it was 4.85 µM; in [3], over 100 µM; in [4], 5.49 µM; in experiment [5], 1.41 µM; in [6] it was 2.17 µM. Further, the TGI in [7] came out at 1.21 µM; in [8] it was 0.925 µM; in [9], 2.43 µM; in [10], 3.29 µM.

For `COC(=O)c1cc(NC(=O)c2cc(NC(=O)c3cc([N+](=O)[O-])n(C)c3)cn2C)cn1C`, the GI50 in experiment [1] was 64.1 µM; in experiment [2] it was over 100 µM; in experiment [3], 54 µM; in [4], 7.74 µM; in experiment [5] it was over 100 µM; in [6] it was 51 µM. For the same compound, the GI50 is 24.5 µM in experiment [7], over 100 µM in experiment [8], 56.1 µM in [9] and 46.7 µM in [10]. Further, the TGI is over 100 µM in [1]; over 100 µM in [2]; over 100 µM in experiment [3]; 31 µM in [4]; over 100 µM in [5]; over 100 µM in experiment [6]. For the same compound, the TGI in experiment [7], in experiment [8], in experiment [9] and in experiment [10] was over 100 µM in each case.

Turning to `C[C@H](c1ccc(F)cc1CCCC(=O)O)N(c1cc(F)ccc1F)S(=O)(=O)c1ccc(Cl)cc1`, the GI50 in experiment [1] was 28.1 µM; in experiment [2], 17.6 µM; in [3], 19.3 µM; in [4], 35.3 µM; in experiment [5] it was 31.2 µM; in [6], 31.4 µM. Further, the GI50 in experiment [7] was 19.6 µM; in experiment [8], 34.5 µM; in experiment [9], 24.5 µM; in experiment [10], 55.3 µM. Besides, the TGI in experiment [1] was over 100 µM; in [2], over 81.2 µM; in [3], over 69.7 µM; in experiment [4] it was over 100 µM; in experiment [5] it was over 100 µM; in [6] it was over 100 µM. Moreover, the TGI is 59 µM in experiment [7], over 100 µM in [8], 67.9 µM in [9] and over 100 µM in [10].

As for `C[C@@H](N)COc1ccc(-c2cnc3ccc(N[C@H](C)c4cccc(F)c4)nn23)cc1`, the GI50 is 1.53 µM in experiment [1]; 2.87 µM in experiment [2]; 2.68 µM in experiment [3]; 1.4 µM in [4]; 1.24 µM in [5]; 1.48 µM in experiment [6]. For the same compound, the GI50 was 2.96 µM in [7], 1.85 µM in experiment [8], 1.52 µM in experiment [9] and 1.75 µM in [10]. The TGI in experiment [1] was determined as 3.82 µM; in experiment [2], 11 µM; in experiment [3], 7.88 µM; in [4], 3.82 µM; in [5], 2.69 µM; in experiment [6], 3.19 µM. Further, the TGI in experiment [7] turned out to be 13.1 µM; in [8], 6.38 µM; in experiment [9] it was 2.86 µM; in experiment [10], 8.22 µM.

As for `O=C1Nc2ccccc2/C1=C\c1c(-c2ccccc2)nc2sccn12`, the GI50 in [1] is 3.5 µM; in experiment [2] it was 1.29 µM; in [3], 0.689 µM; in experiment [4], 3.14 µM; in experiment [5] it was 2.95 µM; in experiment [6] it was 1.39 µM. The GI50 in [7] was 1.63 µM; in experiment [8], 5.86 µM; in [10] it was 4.61 µM. For the same compound, the TGI in experiment [1] is over 100 µM; in experiment [2] it was 4.74 µM; in experiment [3], 19.8 µM; in experiment [4] it was 36.9 µM; in [5], 22.7 µM; in [6] it was 6.18 µM. Also, the TGI is 4.18 µM in experiment [7], 57.1 µM in experiment [8], over 34.4 µM in experiment [9] and 17.2 µM in experiment [10].

As for `COC(=O)C12CCC(C)(C)CC1C1=CCC3C4(C)CC(O)C(O)C(C)(C(=O)OC)C4CCC3(C)C1(CO)CC2` (configuration not stated), the TGI in experiment [1] was determined as 29 µM; in experiment [2], 27.8 µM; in [3] it was 80.2 µM; in experiment [4], 30.1 µM; in experiment [5], 29.8 µM; in experiment [6], 33.5 µM. Moreover, the TGI in experiment [7] came out at 32.2 µM; in experiment [8], 44.9 µM; in experiment [9] it was 31.6 µM; in [10], 33.7 µM.

Consider `Cc1cc(Cl)nc2ccc(Cc3ccc4nc(Cl)cc(C)c4c3)cc12`, for which the TGI was over 100 µM in [1]; over 100 µM in experiment [2]; over 100 µM in [3]; over 100 µM in experiment [4]; 91.5 µM in [5]; over 100 µM in experiment [6]. Also, the TGI was over 100 µM in experiment [7], over 100 µM in experiment [8], 32 µM in experiment [9] and 59.7 µM in [10].

On to `Cc1ccc(-c2nc3nc(-c4ccc(F)cc4)nc(N4CCNCC4)c3o2)cc1`, for which the GI50 in experiment [1] was 2.1 µM; in experiment [2] it was 1.55 µM; in [3] it was 1.91 µM; in [4], 1.86 µM; in experiment [5], 1.66 µM; in experiment [6] it was 1.86 µM. The GI50 is 12 µM in [7], 1.93 µM in experiment [8], 1.67 µM in [9] and 2.07 µM in experiment [10]. Also, the TGI in experiment [1] stood at 4.74 µM; in experiment [2] it was 2.92 µM; in experiment [3], 4.74 µM; in [4], 3.93 µM; in [5], 3.51 µM; in experiment [6] it was 3.63 µM. Also, the TGI in [7] stood at 27.6 µM; in experiment [8] it was 4.35 µM; in experiment [9], 3.12 µM; in [10], 6.38 µM.

Consider `Oc1c(C(Nc2ccccn2)c2cccc(Oc3ccccc3)c2)ccc2cccnc12` (configuration not stated), for which the GI50 was 0.544 µM in experiment [1]; 0.319 µM in experiment [2]; 0.477 µM in [3]; 1.63 µM in experiment [4]; 0.416 µM in experiment [5]; 0.617 µM in [6]. The GI50 in experiment [7] was 0.839 µM; in experiment [8], 0.518 µM; in [9], 0.372 µM; in [10], 0.672 µM. For the same compound, the TGI in [1] is 20 µM; in experiment [2], 10 µM; in [3], over 100 µM; in experiment [4], 30.1 µM; in experiment [5], 13.9 µM; in experiment [6], 19.5 µM. Besides, the TGI in experiment [7] is over 100 µM; in experiment [8] it was 14.3 µM; in [9], 3.56 µM; in [10], 14.5 µM.

With `CC1CCCC(C(=O)CC2CC(=O)NC(=O)C2)C1=O` (configuration not stated), the TGI in experiment [1], in experiment [2], in [3], in experiment [4], in experiment [5] and in [6] was over 100 µM each time. Besides, the TGI in experiment [7], in experiment [8], in experiment [9] and in experiment [10] was over 100 µM in each case.

For the compound `N#CC1C[C@@H]2CC3(CCC2CN1C(=O)c1ccccc1)OCCO3` (some centres not stated), the TGI in [1], in experiment [2], in experiment [3], in [4], in [5] and in experiment [6] was over 100 µM in each case. In addition, the TGI in experiment [7], in [8], in experiment [9] and in [10] was over 100 µM throughout. Further, the GI50 in experiment [2], in experiment [5] and in experiment [6] was over 100 µM each time.

For `Cc1ccc(F)c(NC(=O)Nc2ccc(-c3cccc4[nH]nc(N)c34)cc2)c1`, the GI50 in experiment [1] was 2.31 µM and 2.12 µM; in experiment [2], 2.83 µM and 3.85 µM; in experiment [3], 2.9 µM and 3.4 µM; in [4] it was 2.46 µM and 2.86 µM; in experiment [5], 2.29 µM and 2.07 µM; in experiment [6] it was 4.31 µM and 3.39 µM. Besides, the GI50 in experiment [7] is 2.4 µM and 3.41 µM; in experiment [8], 2.92 µM and 3.25 µM; in [9], 1.61 µM and 1.52 µM; in experiment [10] it was 3.6 µM and 2.84 µM. Further, the TGI in experiment [1] is 5.97 µM and 4.95 µM; in experiment [2] it was 10.1 µM and > 10 µM; in experiment [3], 9.29 µM and > 10 µM; in experiment [4], 6.93 µM and > 10 µM; in experiment [5] it was 8.4 µM and > 10 µM; in [6] it was 16.4 µM and > 10 µM. In addition, the TGI in experiment [7] was 6.17 µM and > 10 µM; in experiment [8] it was 11.2 µM and > 10 µM; in experiment [9], 6.67 µM and > 10 µM; in [10], 14.6 µM and > 10 µM.

In the case of `Cc1ccc(C)c2c1C(=O)N(c1ccc(F)cc1F)C2=O`, the GI50 in experiment [1] was over 100 µM; in [2], over 100 µM; in [3] it was over 100 µM; in [4] it was over 100 µM; in experiment [5], over 100 µM; in experiment [6], 22.9 µM. Moreover, the GI50 in experiment [7], in experiment [8], in [9] and in experiment [10] was over 100 µM each time. Also, the TGI in experiment [1], in experiment [2], in [3], in experiment [4], in experiment [5] and in [6] was over 100 µM each time. The TGI in experiment [7], in [8], in experiment [9] and in experiment [10] was over 100 µM in each case.

Take `O=C(Cn1c(C(=O)c2ccc(Cl)cc2)nc(-c2ccc(Cl)cc2)c1-c1ccc(Cl)cc1)c1ccccc1`: the GI50 in experiment [1], in experiment [2], in experiment [3], in experiment [4], in [5] and in [6] was over 100 µM in each case. Also, the GI50 in experiment [7], in [8], in experiment [9] and in experiment [10] was over 100 µM throughout. Also, the TGI in experiment [1], in experiment [2], in experiment [3], in [4], in experiment [5] and in [6] was over 100 µM each time. Also, the TGI in experiment [7], in experiment [8], in [9] and in experiment [10] was over 100 µM throughout.

Take `CCc1ccccc1NC(=O)C(C#N)C1=C(Cl)C(=O)c2ccccc2C1=O` (configuration not stated): the TGI in [1] was 54.7 µM; in experiment [2] it was 45.6 µM; in [3] it was over 100 µM; in experiment [4], 37.9 µM; in experiment [5], 57 µM; in experiment [6], 22 µM. Besides, the TGI in experiment [7] amounted to 29.5 µM; in [8], 49.8 µM; in experiment [9] it was 37.2 µM; in [10] it was 33.7 µM.

For `Oc1cc(N2CC2)c(O)cc1N1CC1`, the GI50 in experiment [1] was 0.783 µM; in experiment [2], 0.086 µM; in experiment [3], 0.556 µM; in experiment [4], 0.384 µM; in [5], 0.387 µM; in [6], 10.3 µM. The GI50 in [7] was 0.396 µM; in [8], 0.585 µM; in experiment [9] it was 0.389 µM; in experiment [10] it was 1.27 µM. The TGI in experiment [1] was 10.7 µM; in experiment [2] it was 0.332 µM; in experiment [3], over 45 µM; in [4], 6.79 µM; in experiment [5], 4.21 µM; in experiment [6], 64.2 µM. In addition, the TGI is 1.8 µM in [7], 7.97 µM in experiment [8], 2.38 µM in [9] and 9.35 µM in experiment [10].

For the origin of these results see PubChem BioAssay (NCI).
